From patent publication US20150366890A1, “COMPOSITIONS AND METHODS FOR TREATING FUNGAL INFECTIONS” (TRUSTEES OF BOSTON UNIVERSITY, priority 2013, published 2015)

Tested on: S. cerevisiae single-deletion yeast strains
Test: High-throughput 96-well screen of AF sensitivity of single-gene knockouts (CFU at start and after 8 hours)
Format: cell-based
Method: To identify genes critical to AF action, the AF sensitivity of single-gene knockouts identified through the common transcriptional analysis were identified. In the first pass-through, 56 testable genes were identified. This set was later expanded to include targets identified through phenotypic analysis and metabolomic profiling, for a total of 84 target genes (Table 2). The initial 56 targets were tested using a rapid high-throughput 96-well assay with AMB and MCZ to identify single-gene knockouts with elevated resistance to AFs (Table 2). Knockouts that were more resistant to at least one of the AFs were tested individually using the 24-well colony forming (CF) assay. Target genes selected after the initial 56 strains were assayed individually using the 24-well CF assay.
The first 56 S. cerevisiae strains were acquired from the deletion library and stored in 96-well plates in replicates of three. To start the assay, the plates were defrosted and 10 μl of stored cells were inoculated into 100 μl of fresh synthetic dextrose complete (SDC) media for 16 hours. These overnight cultures were diluted into a fresh 96-well plate with 100 μl of SDC to achieve an OD600 of approximately 0.2. Colony forming units (CFU) in each well were measured at the start of the assay and after 8 hours of incubation. The AF susceptibility of each strain was compared to that of wildtype. Strains with significant susceptibility differences from wildtype were assayed in 0.5 ml of SDC media using the 24-well plate CF assay described above.

C[C@@H]1[C@H](O)[C@@H](C)/C=C/C=C/C=C/C=C/C=C/C=C/C=C/[C@H](O[C@@H]2O[C@H](C)[C@@H](O)[C@H](N)[C@@H]2O)C[C@@H]2O[C@](O)(C[C@@H](O)C[C@@H](O)[C@H](O)CC[C@@H](O)C[C@@H](O)CC(=O)O[C@H]1C)C[C@H](O)[C@H]2C(=O)O [AMB, amphotericin B]
96 Well Screen, AF susceptibility vs wildtype (S. cerevisiae PAB101, WT): Normal | 96 Well Screen, AF susceptibility vs wildtype (S. cerevisiae PAB102, HSP104 deletion): Resistant (″Resistant″ or ″Sensitive″ indicate at least a 5-fold CFU difference from wildtype at the final time point) | 96 Well Screen, AF susceptibility vs wildtype (S. cerevisiae PAB103, SDH2 deletion): Resistant (″Resistant″ or ″Sensitive″ indicate at least a 5-fold CFU difference from wildtype at the final time point) | 96 Well Screen, AF susceptibility vs wildtype (S. cerevisiae PAB104, FRE8 deletion): Resistant (″Resistant″ or ″Sensitive″ indicate at least a 5-fold CFU difference from wildtype at the final time point) | 96 Well Screen, AF susceptibility vs wildtype (S. cerevisiae PAB105, CHA4 deletion): Resistant (″Resistant″ or ″Sensitive″ indicate at least a 5-fold CFU difference from wildtype at the final time point) | 96 Well Screen, AF susceptibility vs wildtype (S. cerevisiae PAB106, FMS1 deletion): Resistant (″Resistant″ or ″Sensitive″ indicate at least a 5-fold CFU difference from wildtype at the final time point) | 96 Well Screen, AF susceptibility vs wildtype (S. cerevisiae PAB107, NDE1 deletion): Resistant (″Resistant″ or ″Sensitive″ indicate at least a 5-fold CFU difference from wildtype at the final time point) | 96 Well Screen, AF susceptibility vs wildtype (S. cerevisiae PAB108, ALD3 deletion): Resistant (″Resistant″ or ″Sensitive″ indicate at least a 5-fold CFU difference from wildtype at the final time point) | 96 Well Screen, AF susceptibility vs wildtype (S. cerevisiae PAB109, GAD1 deletion): Normal | 96 Well Screen, AF susceptibility vs wildtype (S. cerevisiae PAB110, PGM3 deletion): Normal | 96 Well Screen, AF susceptibility vs wildtype (S. cerevisiae PAB111, PYK2 deletion): Resistant (″Resistant″ or ″Sensitive″ indicate at least a 5-fold CFU difference from wildtype at the final time point) | 96 Well Screen, AF susceptibility vs wildtype (S. cerevisiae PAB112, MNE1 deletion): Normal | 96 Well Screen, AF susceptibility vs wildtype (S. cerevisiae PAB113, FUM1 deletion): Normal | 96 Well Screen, AF susceptibility vs wildtype (S. cerevisiae PAB114, TPK2 deletion): Normal | 96 Well Screen, AF susceptibility vs wildtype (S. cerevisiae PAB115, ATG29 deletion): Resistant (″Resistant″ or ″Sensitive″ indicate at least a 5-fold CFU difference from wildtype at the final time point) | 96 Well Screen, AF susceptibility vs wildtype (S. cerevisiae PAB116, ISU1 deletion): Resistant (″Resistant″ or ″Sensitive″ indicate at least a 5-fold CFU difference from wildtype at the final time point) | 96 Well Screen, AF susceptibility vs wildtype (S. cerevisiae PAB117, CYC7 deletion): Normal | 96 Well Screen, AF susceptibility vs wildtype (S. cerevisiae PAB118, ARN1 deletion): Normal | 96 Well Screen, AF susceptibility vs wildtype (S. cerevisiae PAB119, CIT2 deletion): Resistant (″Resistant″ or ″Sensitive″ indicate at least a 5-fold CFU difference from wildtype at the final time point) | 96 Well Screen, AF susceptibility vs wildtype (S. cerevisiae PAB120, HSP30 deletion): Normal | 96 Well Screen, AF susceptibility vs wildtype (S. cerevisiae PAB121, SDH1 deletion): Normal | 96 Well Screen, AF susceptibility vs wildtype (S. cerevisiae PAB122, TPK3 deletion): Resistant (″Resistant″ or ″Sensitive″ indicate at least a 5-fold CFU difference from wildtype at the final time point) | 96 Well Screen, AF susceptibility vs wildtype (S. cerevisiae PAB123, ISU2 deletion): Normal | 96 Well Screen, AF susceptibility vs wildtype (S. cerevisiae PAB124, TPK1 deletion): Normal | 96 Well Screen, AF susceptibility vs wildtype (S. cerevisiae PAB125, MID2 deletion): Normal | 96 Well Screen, AF susceptibility vs wildtype (S. cerevisiae PAB126, SSK1 deletion): Sensitive (″Resistant″ or ″Sensitive″ indicate at least a 5-fold CFU difference from wildtype at the final time point) | 96 Well Screen, AF susceptibility vs wildtype (S. cerevisiae PAB127, HSP42 deletion): Normal | 96 Well Screen, AF susceptibility vs wildtype (S. cerevisiae PAB128, PIG1 deletion): Normal | 96 Well Screen, AF susceptibility vs wildtype (S. cerevisiae PAB130, UGA1 deletion): Resistant (″Resistant″ or ″Sensitive″ indicate at least a 5-fold CFU difference from wildtype at the final time point) | 96 Well Screen, AF susceptibility vs wildtype (S. cerevisiae PAB131, MTL1 deletion): Normal | 96 Well Screen, AF susceptibility vs wildtype (S. cerevisiae PAB132, CIT3 deletion): Resistant (″Resistant″ or ″Sensitive″ indicate at least a 5-fold CFU difference from wildtype at the final time point) | 96 Well Screen, AF susceptibility vs wildtype (S. cerevisiae PAB133, ZWF1 deletion): Normal | 96 Well Screen, AF susceptibility vs wildtype (S. cerevisiae PAB134, SUM1 deletion): sensitive | 96 Well Screen, AF susceptibility vs wildtype (S. cerevisiae PAB135, NDI1 deletion): Resistant (″Resistant″ or ″Sensitive″ indicate at least a 5-fold CFU difference from wildtype at the final time point) | 96 Well Screen, AF susceptibility vs wildtype (S. cerevisiae PAB136, PGM2 deletion): Normal | 96 Well Screen, AF susceptibility vs wildtype (S. cerevisiae PAB137, HFD1 deletion): Normal | 96 Well Screen, AF susceptibility vs wildtype (S. cerevisiae PAB138, PUF2 deletion): Normal | 96 Well Screen, AF susceptibility vs wildtype (S. cerevisiae PAB139, TDH1 deletion): Sensitive (″Resistant″ or ″Sensitive″ indicate at least a 5-fold CFU difference from wildtype at the final time point) | 96 Well Screen, AF susceptibility vs wildtype (S. cerevisiae PAB140, GUD1 deletion): Sensitive (″Resistant″ or ″Sensitive″ indicate at least a 5-fold CFU difference from wildtype at the final time point) | 96 Well Screen, AF susceptibility vs wildtype (S. cerevisiae PAB141, ATG15 deletion): Sensitive (″Resistant″ or ″Sensitive″ indicate at least a 5-fold CFU difference from wildtype at the final time point) | 96 Well Screen, AF susceptibility vs wildtype (S. cerevisiae PAB142, TDH2 deletion): Sensitive (″Resistant″ or ″Sensitive″ indicate at least a 5-fold CFU difference from wildtype at the final time point) | 96 Well Screen, AF susceptibility vs wildtype (S. cerevisiae PAB143, ATP1 deletion): Sensitive (″Resistant″ or ″Sensitive″ indicate at least a 5-fold CFU difference from wildtype at the final time point) | 96 Well Screen, AF susceptibility vs wildtype (S. cerevisiae PAB144, UGA2 deletion): Sensitive (″Resistant″ or ″Sensitive″ indicate at least a 5-fold CFU difference from wildtype at the final time point) | 96 Well Screen, AF susceptibility vs wildtype (S. cerevisiae PAB145, CIT1 deletion): Resistant (″Resistant″ or ″Sensitive″ indicate at least a 5-fold CFU difference from wildtype at the final time point) | 96 Well Screen, AF susceptibility vs wildtype (S. cerevisiae PAB146, SOLI deletion): Normal | 96 Well Screen, AF susceptibility vs wildtype (S. cerevisiae PAB147, PAN6 deletion): Normal | 96 Well Screen, AF susceptibility vs wildtype (S. cerevisiae PAB148, SOL4 deletion): Normal | 96 Well Screen, AF susceptibility vs wildtype (S. cerevisiae PAB149, YAK1 deletion): Sensitive (″Resistant″ or ″Sensitive″ indicate at least a 5-fold CFU difference from wildtype at the final time point) | 96 Well Screen, AF susceptibility vs wildtype (S. cerevisiae PAB150, PBS2 deletion): Sensitive (″Resistant″ or ″Sensitive″ indicate at least a 5-fold CFU difference from wildtype at the final time point) | 96 Well Screen, AF susceptibility vs wildtype (S. cerevisiae PAB152, GPD1 deletion): Sensitive (″Resistant″ or ″Sensitive″ indicate at least a 5-fold CFU difference from wildtype at the final time point) | 96 Well Screen, AF susceptibility vs wildtype (S. cerevisiae PAB153, SHO1 deletion): Sensitive (″Resistant″ or ″Sensitive″ indicate at least a 5-fold CFU difference from wildtype at the final time point) | 96 Well Screen, AF susceptibility vs wildtype (S. cerevisiae PAB154, FET3 deletion): Sensitive (″Resistant″ or ″Sensitive″ indicate at least a 5-fold CFU difference from wildtype at the final time point) | 96 Well Screen, AF susceptibility vs wildtype (S. cerevisiae PAB155, FBP1 deletion): Sensitive (″Resistant″ or ″Sensitive″ indicate at least a 5-fold CFU difference from wildtype at the final time point) | 96 Well Screen, AF susceptibility vs wildtype (S. cerevisiae PAB156, COX6 deletion): Sensitive (″Resistant″ or ″Sensitive″ indicate at least a 5-fold CFU difference from wildtype at the final time point)
